Laboratory results reported in patent publication US6936602B1, “Benzazepine derivatives, process for the preparation of the same and uses thereof” (Takeda Chemical Industries, Ltd., priority 1999, dated 2005).

Structure (SMILES): CCCCOCCOc1ccc(-c2ccc3c(c2)C=C(C(=O)Nc2ccc(CN(C)C4CCOCC4)cc2)CCN3c2ccc(S(=O)(=O)N(C)C)cc2)cc1 [Compound 47, 7-[4-(2-butoxyethoxy)phenyl]-1-(N,N-dimethyl-4-sulfamoylphenyl)-N-[4-[[N-methyl-N-(tetrahydro-2H-pyran-4-yl)amino]methyl]phenyl]-2,3-dihydro-1H-1-benzazepine-4-carboxamide]
- melting point: 94 to 98 °C

Structure (SMILES): CCOCCCOc1ccc(-c2ccc3c(c2)C=C(C(=O)Nc2ccc(CN(C)C4CCOCC4)cc2)CCN3C)cc1 [Compound 13, 7-[4-(3-ethoxypropoxy)phenyl]-1-methyl-N-[4-[[N-methyl-N-(tetrahydro-2H-pyran-4-yl)amino]methyl]phenyl]-2,3-dihydro-1H-1-benzazepine-4-carboxamide]
- melting point: 98 to 100 °C

Structure (SMILES): CCCCOCCOc1ccc(-c2ccc3c(c2)C=C(C(=O)Nc2ccc(CN(C)C4CCOCC4)cc2)CCN3c2cnc(C)o2)cc1 [Compound 44, 7-[4-(2-butoxyethoxy)phenyl]-1-(2-methyloxazol-5-yl)-N-[4-[[N-methyl-N-(tetrahydro-2H-pyran-4-yl)amino]methyl]phenyl]-2,3-dihydro-1H-1-benzazepine-4-carboxamide]
- melting point: 125 to 128 °C

Structure (SMILES): CCOCCCOc1ccc(-c2ccc3c(c2)C=C(C(=O)Nc2ccc(CN(C)C4CCOCC4)cc2)CCN3S(C)(=O)=O)cc1 [Compound 8, 7-[4-(3-ethoxypropoxy)phenyl)-1-methanesulfonyl-N-[4-[[N-methyl-N-(tetrahydro-2H-pyran-4-yl)amino]methyl]phenyl]-2,3-dihydro-1H-1-benzazepine-4-carboxamide]
- melting point: 157 to 160 °C

Structure (SMILES): CN1CCC(C(=O)Nc2ccc(CN(C)C3CCOCC3)cc2)=Cc2cc(-c3ccc4c(c3)OCCO4)ccc21 [Compound 24, 7-(2,3-dihydro-1,4-benzodioxin-6-yl)-1-methyl-N-[4-[[N-methyl-N-(tetrahydro-2H-pyran-4-yl)amino]methyl]phenyl]-2,3-dihydro-1H-1-benzazepine-4-carboxamide]
- melting point: 164 to 165 °C

Structure (SMILES): CCCOCCOc1ccc(-c2ccc3c(c2)C=C(C(=O)Nc2ccc(CN(C)C4CCOCC4)cc2)CCN3C)cc1 [Compound 12, 1-methyl-N-[4-[[N-methyl-N-(tetrahydro-2H-pyran-4-yl)amino]methyl]phenyl]-7-[4-(2-propoxyethoxy)phenyl]-2,3-dihydro-1H-benzazepine-4-carboxamide]
- melting point: 136 to 138 °C

Structure (SMILES): CC#CCN1CCC(C(=O)Nc2ccc(CN(C)C3CCOCC3)cc2)=Cc2cc(-c3ccc(OCCOCCCC)cc3)ccc21 [Compound 95, 7-[4-(2-butoxyethoxy)phenyl]-1-(2-butynyl)-N-[4-[N-methyl-N-(tetrahydropyran-4-yl)aminomethyl]phenyl]-2,3-dihydro-1-benzazepine-4-carboxamide]
- melting point: 129 to 131 °C

Structure (SMILES): CCCOCCOc1ccc(-c2ccc3c(c2)C=C(C(=O)Nc2ccc(CN(C)C4CCOCC4)cc2)CCN3Cc2ccc(OC)cc2)cc1 [Compound 55, 1-(4-methoxybenzyl)-N-[4-[[N-methyl-N-(tetrahydropyran-4-yl)amino]methyl]phenyl]-7-(4-propoxyethoxyphenyl)-2,3-dihydro-1-benzazepine-4-carboxamide]
- melting point: 160 to 161 °C

Structure (SMILES): CCCOCCOc1ccc(-c2ccc3c(c2)C=C(C(=O)Nc2ccc(CN(C)C4CCOCC4)cc2)CCN3Cc2ccccc2OC)cc1 [Compound 51, 1-(2-methoxybenzyl)-N-[4-[[N-methyl-N-(tetrahydropyran-4-yl)amino]methyl]phenyl]-7-(4-propoxyethoxyphenyl)-2,3-dihydro-1-benzazepine-4-carboxamide]
- melting point: 118 to 119 °C

Structure (SMILES): CCCCOCCOc1ccc(-c2ccc3c(c2)C=C(C(=O)Nc2ccc(CN(C)C4CCOCC4)cc2)CCN3Cc2cccs2)cc1 [Compound 60, 7-(4-butoxyethoxyphenyl)-N-[4-[[N-methyl-N-(tetrahydropyran-4-yl)amino]methyl]phenyl]-1-(2-thienylmethyl)-2,3-dihydro-1-benzazepine-4-carboxamide]
- melting point: 84 to 85 °C

Structure (SMILES): CCCCOCCOc1ccc(-c2ccc3c(c2)C=C(C(=O)Nc2ccc(CN(C)C4CCOCC4)cc2)CCN3C)cc1 [Compound 18, 7-[4-(2-butoxyethoxy)phenyl]-1-methyl-N-[4-[[N-methyl-N-(tetrahydro-2H-pyran-4-yl)amino]methyl]phenyl]-2,3-dihydro-1H-1-benzazepine-4-carboxamide]
- melting point: 107 to 110 °C

Structure (SMILES): CCCOCCOc1ccc(-c2ccc3c(c2)C=C(C(=O)Nc2ccc(CN(C)C4CCOCC4)cc2)CCN3Cc2cccc(OC)c2)cc1 [Compound 53, 1-(3-methoxybenzyl)-N-[4-[[N-methyl-N-(tetrahydropyran-4-yl)amino]methyl]phenyl]-7-(4-propoxyethoxyphenyl)-2,3-dihydro-1-benzazepine-4-carboxamide]
- melting point: 113 to 114 °C

Structure (SMILES): CCCOCCOc1ccc(-c2ccc3c(c2)C=C(C(=O)Nc2ccc(CN(C)C4CCOCC4)cc2)CCN3CCCOC)cc1 [Compound 103, 1-(3-methoxypropyl)-N-[4-[[N-methyl-N-(tetrahydropyran-4-yl)amino]methyl]phenyl]-7-[4-(2-propoxyethoxy)phenyl]-2,3-dihydro-1H-1-benzazepine-4-carboxamide]
- melting point: 87 to 90 °C

Structure (SMILES): CCOCCOc1ccc(-c2ccc3c(c2)C=C(C(=O)Nc2ccc(CN(C)C4CCOCC4)cc2)CCN3C=O)cc1Cl [Compound 21, 7-[3-chloro4-(2-ethoxy)ethoxyphenyl]-1-formyl-N-[4-[[N-methyl-N-(tetrahydro-2H-pyran-4-yl)amino]methyl]phenyl]-2,3-dihydro-1H-1-benzazepine-4-carboxamide]
- melting point: 198 to 200 °C

Structure (SMILES): CCCCOCCOc1ccc(-c2ccc3c(c2)C=C(C(=O)Nc2ccc(CN(C)C4CCOCC4)cc2)CCN3Cc2cc(OC)ccc2OC)cc1 [Compound 65, 7-(4-butoxyethoxyphenyl)-1-(2,5-dimethoxybenzyl)-N-[4-[[N-methyl-N-(tetrahydropyran-4-yl)amino]methyl]phenyl]-2,3-dihydro-1-benzazepine-4-carboxamide]
- melting point: 143 to 144 °C

Structure (SMILES): CCCOCCN(CC)c1ccc(-c2ccc3c(c2)C=C(C(=O)Nc2ccc(CN(C)C4CCOCC4)cc2)CCN3C=O)cc1 [Compound 6, 7-[4-[N-ethyl-N-(2-propoxyethyl)amino]phenyl]-1-formyl-N-[4-[[N-methyl-N-(tetrahydro-2H-pyran-4-yl)amino]methyl]phenyl]-2,3-dihydro-1H-1-benzazepine-4-carboxamide]
- melting point: 146 to 149 °C

Structure (SMILES): CCCOCCOc1ccc(-c2ccc3c(c2)C=C(C(=O)Nc2ccc(CN(C)C4CCOCC4)cc2)CCN3Cc2cccs2)cc1 [Compound 59, N-[4-[[N-methyl-N-(tetrahydropyran-4-yl)amino]methyl]phenyl]-7-(4-propoxyethoxyphenyl)-1-(2-thienylmethyl)-2,3-dihydro-1-benzazepine-4-carboxamide]
- melting point: 104.5 to 105.5 °C

Structure (SMILES): CCCCOCCOc1ccc(-c2ccc3c(c2)C=C(C(=O)Nc2ccc(CN(C)C4CCOCC4)cc2)CCN3Cc2cccc(OC)c2)cc1 [Compound 54, 7-(4-butoxyethoxyphenyl)-1-(3-methoxybenzyl)-N-[4-[[N-methyl-N-(tetrahydropyran-4-yl)amino]methyl]phenyl]-2,3-dihydro-1-benzazepine-4-carboxamide]
- melting point: 107.5 to 108.5 °C
